{"source": "patent US20260250318A1", "about": "“COMPOSITIONS AND METHODS FOR CROSSING THE BLOOD BRAIN BARRIER” (VOYAGER THERAPEUTICS, INC., priority 2022, published 2026)"}
{"tested_on": "brain", "experiment": "Maturation of TTM-001 capsid, NGS enrichment in brain of CD-1 Outbred mice", "type": "in vivo", "conditions": "NGS fold-enrichment of TTM-001 matured AAV capsid variants in the brain of CD-1 Outbred mice; intravenous 1.0×10^12 VG/dose; 14 days in life; RNA; relative to non-matured TTM-001 control", "how_it_was_run": "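Pooled matured TTM-001 or TTM-002 capsid libraries (loop IV region randomized by triple-codon or low-frequency point mutagenesis) dosed IV via tail vein at 1.0×10^12 VG/dose to three female CD-1 mice. Brain RNA taken after 14 days; RT-PCR and NGS gave fold enrichment versus parent TTM-001 or TTM-002 control.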", "units": {"Fold enrichment over TTM-001": "fold"}}
{"sequence": "KTINGSGSPHSKACSAQT", "Fold enrichment over TTM-001": 2.754}
{"sequence": "KTINGSGSPHSCLQNQQT", "Fold enrichment over TTM-001": 3.559}
{"sequence": "KTINGSGSPHSKKMSQQT", "Fold enrichment over TTM-001": 2.235}
{"sequence": "KTINGSGSPHSKLPRQQT", "Fold enrichment over TTM-001": 2.562}
{"sequence": "KTINGSGSPHSKSIRQQT", "Fold enrichment over TTM-001": 2.728}
{"sequence": "KTINGSGSPHSKAQGFRT", "Fold enrichment over TTM-001": 2.279}
{"sequence": "KTINGSGSPHSKARNGQT", "Fold enrichment over TTM-001": 2.482}
{"sequence": "KTINGSGSPHSKAQVWFT", "Fold enrichment over TTM-001": 2.181}
{"sequence": "KTINGSGSPHSKFLFQQT", "Fold enrichment over TTM-001": 3.173}
{"sequence": "KPLDGSGSPHSKAQNQQT", "Fold enrichment over TTM-001": 2.488}
{"sequence": "KTINGSPSPHLFAQNQQT", "Fold enrichment over TTM-001": 2.238}
{"sequence": "KTINGSGSPHSKATRHQT", "Fold enrichment over TTM-001": 2.777}
{"sequence": "KTINGMKSPHSKAQNQQT", "Fold enrichment over TTM-001": 2.413}
{"sequence": "KTINTSRSPHSKAQNQQT", "Fold enrichment over TTM-001": 2.520}
{"sequence": "KTINGRISPHGKAQNQQT", "Fold enrichment over TTM-001": 2.492}
{"sequence": "KTINGSGSPHSKASKQQT", "Fold enrichment over TTM-001": 2.069}
{"sequence": "KTINGSGSPHSKRLMQQT", "Fold enrichment over TTM-001": 2.345}
{"sequence": "KTINGSGSPHFMRQNQQT", "Fold enrichment over TTM-001": 2.123}
{"sequence": "KTINGSTSPHWSAQNQQT (peptide inserted in AAV capsid)", "Fold enrichment over TTM-001": 2.043}
{"sequence": "KTINGSGSPHSKVARQQT", "Fold enrichment over TTM-001": 2.136}
{"sequence": "KTINGSLSPHTWAQNQQT", "Fold enrichment over TTM-001": 2.115}
{"sequence": "KTINGSGSPHSKAQLTLT", "Fold enrichment over TTM-001": 2.641}
{"sequence": "KTINGSGSPHSKPRGQQT", "Fold enrichment over TTM-001": 2.147}
{"sequence": "KTINGSGSPHSKALKRQT", "Fold enrichment over TTM-001": 2.836}
{"sequence": "KTINGSGSPHSKFSCQQT", "Fold enrichment over TTM-001": 2.348}
{"sequence": "KTINGSNSPHRKAQNQQT", "Fold enrichment over TTM-001": 2.218}
{"sequence": "KTINGSRSPHRRAQNQQT (peptide inserted in AAV capsid)", "Fold enrichment over TTM-001": 2.615}
{"sequence": "KTINGSGSPHSKARLQQT", "Fold enrichment over TTM-001": 2.089}
{"sequence": "KAFNGSGSPHSKAPNQQT", "Fold enrichment over TTM-001": 2.088}
{"sequence": "KTINGRQSPHVKAQNQQT", "Fold enrichment over TTM-001": 2.557}
{"sequence": "KTINGSGSPHSKAQFTLT", "Fold enrichment over TTM-001": 2.277}
{"sequence": "KTINGSGSPHSTRLNQQT", "Fold enrichment over TTM-001": 2.860}
{"sequence": "KTINGSGSPHSKAQFSRT", "Fold enrichment over TTM-001": 2.847}
{"sequence": "KTINGSGSPHSKSLKQQT", "Fold enrichment over TTM-001": 2.013}
{"sequence": "KTINGSGSPHSKAHRLQT", "Fold enrichment over TTM-001": 2.603}
{"sequence": "KTINGSGSPHSWSLNQQT", "Fold enrichment over TTM-001": 2.523}
{"sequence": "KTINGSGSPHSKRTAQQT", "Fold enrichment over TTM-001": 2.331}
{"sequence": "KTINGSGSPHSKACPLQT", "Fold enrichment over TTM-001": 2.285}
{"sequence": "KTINGSGSPHSKAQTGRT", "Fold enrichment over TTM-001": 2.371}
{"sequence": "KTINGSGSPHSKLWSQQT", "Fold enrichment over TTM-001": 2.190}
{"sequence": "KTINGSGSPHSKAQCYVT", "Fold enrichment over TTM-001": 2.261}
{"sequence": "KTINGSGSPHVLFQNQQT", "Fold enrichment over TTM-001": 2.203}
{"sequence": "KTINGSGSPHSTVWNQQT", "Fold enrichment over TTM-001": 2.196}
{"sequence": "KTINLSRSPHSKAQNQQT", "Fold enrichment over TTM-001": 2.246}
{"sequence": "KTINGQRSPHSKAQNQQT", "Fold enrichment over TTM-001": 2.590}
{"sequence": "KTINGSGSPHSKAQSRRT", "Fold enrichment over TTM-001": 3.372}
{"sequence": "KTINGSGSPHSKATRRQT", "Fold enrichment over TTM-001": 3.277}
{"sequence": "KTINGSGSPHSKARKLQT", "Fold enrichment over TTM-001": 2.458}
{"sequence": "KTINGSGSPHSRSRNQQT", "Fold enrichment over TTM-001": 3.784}
{"sequence": "KTINGSGSPHSKAQNRKL", "Fold enrichment over TTM-001": 2.084}
{"sequence": "KTINGSGSPHSKAQVLIT", "Fold enrichment over TTM-001": 2.317}
{"sequence": "KTINGSGSPHSKAQGVKT", "Fold enrichment over TTM-001": 2.002}
{"sequence": "KTINGSGSPHLWSQNQQT", "Fold enrichment over TTM-001": 3.857}
{"sequence": "KTINGSGSPHSLWQNQQT", "Fold enrichment over TTM-001": 2.037}
{"sequence": "KTINGSGSPHSKVSRQQT", "Fold enrichment over TTM-001": 2.108}
{"sequence": "KTINGSGSPHSKTRMQQT", "Fold enrichment over TTM-001": 2.011}
{"sequence": "KTINGVPSPHWKAQNQQT", "Fold enrichment over TTM-001": 2.758}
{"sequence": "KTINGSGSPHSRLRNQQT", "Fold enrichment over TTM-001": 3.851}
{"sequence": "KTINGSGSPHSKPVRQQT", "Fold enrichment over TTM-001": 2.529}
{"sequence": "KTIMRVGSPHSKAQNQQT", "Fold enrichment over TTM-001": 4.875}
{"sequence": "KTINGSGSPHSKAQNRIR", "Fold enrichment over TTM-001": 2.039}
{"sequence": "KTINGSGSPHSKCLTQQT", "Fold enrichment over TTM-001": 2.644}
{"sequence": "KTINGSGSPHFLNQNQQT", "Fold enrichment over TTM-001": 2.359}
{"sequence": "KTINGSGSPHSFLRNQQT", "Fold enrichment over TTM-001": 3.384}
{"sequence": "KTINGHSSPHRKAQNQQT", "Fold enrichment over TTM-001": 2.639}
{"sequence": "KTINGSGSPHSKLRRQQT", "Fold enrichment over TTM-001": 6.231}
{"sequence": "KTINGSGSPHSKRINQQT", "Fold enrichment over TTM-001": 2.173}
{"sequence": "KTINGSGSPHSRLFNQQT", "Fold enrichment over TTM-001": 2.542}
{"sequence": "KTINGRSSPHGKAQNQQT", "Fold enrichment over TTM-001": 3.035}
{"sequence": "KTINGSGSPHSKAQLGKT", "Fold enrichment over TTM-001": 2.000}
{"sequence": "KTINGSGSPHSSLWNQQT", "Fold enrichment over TTM-001": 3.179}
{"sequence": "KTINGSGSPHTWSQNQQT", "Fold enrichment over TTM-001": 2.011}
{"sequence": "KTINGSGSPHAFLQNQQT", "Fold enrichment over TTM-001": 2.475}
{"sequence": "KTINGSGSPHSKSARQQT", "Fold enrichment over TTM-001": 2.067}
{"sequence": "KTINGSGSPHIYRQNQQT", "Fold enrichment over TTM-001": 2.782}
{"sequence": "KTINGSGSPHSKAQSLKT", "Fold enrichment over TTM-001": 2.110}
{"sequence": "KTINGSGSPHSKYPSQQT", "Fold enrichment over TTM-001": 3.114}
{"sequence": "KTINGSGSPHSKANRMQT", "Fold enrichment over TTM-001": 2.508}
{"sequence": "KTINGSGSPHFLRQNQQT", "Fold enrichment over TTM-001": 4.777}
{"sequence": "KTINGSGSPHSVYLNQQT", "Fold enrichment over TTM-001": 4.426}
{"sequence": "KTINGSKSPHFKAQNQQT", "Fold enrichment over TTM-001": 3.285}
{"sequence": "KTINGHRSPHLKAQNQQT", "Fold enrichment over TTM-001": 2.320}
{"sequence": "KTINGRRSPHTKAQNQQT", "Fold enrichment over TTM-001": 2.069}
{"sequence": "KTINGSGSPHSKARMQQT", "Fold enrichment over TTM-001": 2.184}
{"sequence": "KTINGSGSPHSKRMSQQT", "Fold enrichment over TTM-001": 2.931}
{"sequence": "KTINGSESPHDSAQNQQT", "Fold enrichment over TTM-001": 2.164}
{"sequence": "KTINGSGSPHSKLVRQQT", "Fold enrichment over TTM-001": 2.801}
{"sequence": "KTINGSGSPHSFVVNQQT", "Fold enrichment over TTM-001": 2.335}
{"sequence": "KTINGSGSPHSKAFRLQT", "Fold enrichment over TTM-001": 4.849}
{"sequence": "KTINGSGSPHSKAQTART", "Fold enrichment over TTM-001": 2.363}
{"sequence": "KTINGSGSPHSKAQSSRT", "Fold enrichment over TTM-001": 2.575}
{"sequence": "KTINGSGSPHCLLQNQQT", "Fold enrichment over TTM-001": 4.898}
{"sequence": "KTINGSGSPHSKHLRQQT", "Fold enrichment over TTM-001": 3.438}
{"sequence": "KTINGSSSPHWVAQNQQT (peptide inserted in AAV capsid)", "Fold enrichment over TTM-001": 3.277}
{"sequence": "KTINGSGSPHSKAQILVT", "Fold enrichment over TTM-001": 2.009}
{"sequence": "KTINGSGSPHSKARRQQT", "Fold enrichment over TTM-001": 4.218}
{"sequence": "KTINGSGSPHSKAQTMRT", "Fold enrichment over TTM-001": 2.453}
{"sequence": "KTINGSRSPHFKAQNQQT (peptide inserted in AAV capsid)", "Fold enrichment over TTM-001": 2.277}
{"sequence": "KTINGSGSPHSKWPGQQT", "Fold enrichment over TTM-001": 2.477}
{"sequence": "KTINGSGSPHSKRNVQQT", "Fold enrichment over TTM-001": 2.404}
{"sequence": "KTINGSGSPHSKVIRQQT", "Fold enrichment over TTM-001": 2.760}
{"sequence": "KTINGSGSPHLFRQNQQT", "Fold enrichment over TTM-001": 2.324}
{"sequence": "KTSRCSGSPHSKAQNQQT", "Fold enrichment over TTM-001": 2.345}
{"sequence": "KTINGSGSPHSKGCLQQT", "Fold enrichment over TTM-001": 2.320}
{"sequence": "KTINGSGSPHSKARSKQT", "Fold enrichment over TTM-001": 2.758}
{"sequence": "KTINGSGSPHSKPRVQQT", "Fold enrichment over TTM-001": 2.441}
{"sequence": "KTINGSGSPHSKPLRQQT", "Fold enrichment over TTM-001": 2.844}
{"sequence": "KTINGRSSPHFKAQNQQT", "Fold enrichment over TTM-001": 2.428}
{"sequence": "KTINGSGSPHSRTYNQQT", "Fold enrichment over TTM-001": 2.009}
{"sequence": "KTINGFRSPHSKAQNQQT", "Fold enrichment over TTM-001": 2.333}
{"sequence": "KTINGSGSPHSKAVRQQT", "Fold enrichment over TTM-001": 2.052}
{"sequence": "KYSVGSGSPHSKAQNQQT (peptide inserted in AAV capsid)", "Fold enrichment over TTM-001": 3.365}
{"sequence": "KTINGLPSPHRKAQNQQT", "Fold enrichment over TTM-001": 2.719}
{"sequence": "KTINGRSSPHRKAQNQQT", "Fold enrichment over TTM-001": 2.965}
{"sequence": "KTINGSGSPHSYLRNQQT", "Fold enrichment over TTM-001": 4.566}
{"sequence": "KTINGSCSPHLAAQNQQT", "Fold enrichment over TTM-001": 2.134}
